# Where “and” joins values, the source holds several entries; their conditions need not be identical. Equal entries are not always repeated.
# System: 168753-222-R-J1-PDC complex spheroid viability
# Assay: Anticancer human tumor 168753-222-R-J1-PDC patient-derived bladder carcinoma cell line growth inhibition [CLK]
# Settings: for viability, T/C: stronger effect = lower value
# Source text: A high-throughput screen of multi-cell type tumor spheroids was designed to identify active combinations of […] and targeted small molecules. Complex spheroids include a stromal component modeled by human endothelial cells (HUVEC) and fibroblasts modeled by human mesenchymal stem cells (MSCs). The concentration ranges selected for each drug and investigational agent were based upon clinically achievable concentrations if the clinical Cmax of the agent was known.
# Compounds. The drugs and investigational agents: cirtuvivint (SM08502; NSC835563), CC-671 (NSC850746), vemurafenib (NSC761431), tapotoclax (NSC804041), sotorasib (NSC818433), adagrasib (NSC831453), MRTX-1133 (NSC836407), BAY2416964 (NSC825713), copanlisib (NSC816437), inavolisib (NSC800729), abemaciclib (NSC768073), osimertinib (NSC779217), entinostat (NSC756642), eltanexor (KPT-8602, NSC794443), venetoclax (NSC766270), ceralasertib (NSC777638), bortezomib (NSC756655), olaparib (NSC753686), talazoparib (NSC767125), alisertib (NSC759677), peposertib (NSC802822), gemcitabine (NSC613327), 5-fluorouracil (NSC19893), SN-38 (NSC673596), oxaliplatin (NSC266046), paclitaxel (NSC125973), and doxorubicin (NSC123127), were obtained from the National Cancer Institute (NCI) Developmental Therapeutics Program Chemical Repository. The FDA-approved anticancer drug set is available from the Developmental Therapeutics Program at https://dtp.cancer.gov/organization/dscb/obtaining/available plates.htm. […] The stock solutions were prepared in dimethyl sulfoxide (DMSO, Sigma-Aldrich, St. Louis, MO, cat. D2650), except for the platinum complexes which were prepared in saline (Quality Biological, Gaithersburg, MD, cat. 114-055-101), at 800-fold the tested concentration and stored at -70 degrees C prior to their use. All drugs and investigational agents were tested over a range starting from a high concentration at or near the clinical Cmax and decreasing in half-log increments. If the clinical Cmax for an agent had not been determined, the highest concentration tested was 10 microM.
# Cell Culture. All cells were maintained in an incubator at 37 degrees C and 5% CO2 with 95% humidity. The PDC lines were cultured according to standard operating procedures established by the NCI PDMR. Briefly, all PDCs were thawed and cultured in Matrigel-coated flasks prepared with a working solution of 1X Ham's F-12 nutrient mix, without supplementation (Invitrogen, Waltham, MA, cat. 11765054), 100 U/mL penicillin-streptomycin (Invitrogen, cat. 15140122), and 2.5% Matrigel (Corning Inc., Corning, NY, cat. 354248) for the first three passages. The 947758-054-R-J2-PDC line was cultured in 6B/Colon 1A media, which includes advanced DMEM/F-12 (Thermo Fisher Scientific, cat. 12634028), 10 mM HEPES (Thermo Fisher Scientific, cat. 15630080), 1X GlutaMAX supplement (Thermo Fisher Scientific, cat. 35050061), 0.1 mg/mL primocin (InvivoGen, cat. ant-pm-2), 10% defined fetal bovine serum, heat inactivated (HyClone Laboratories Inc., cat. SH30070.03HI), 1.25 mM N-Acetyl-L-cysteine (Sigma-Aldrich, cat. A9165), 10 mM nicotinamide (Sigma-Aldrich, cat. N0636), 1X B-27 supplement (Thermo Fisher Scientific, cat. 17504044), 1X N-2 supplement (Thermo Fisher Scientific, cat. 17502048), and 10 microM Y-27632 dihydrochloride (Tocris Bioscience, cat. 1254). The 876862-298-R-J1-PDC was cultured in 6E media, which includes all 6B/Colon 1A media components plus 50% L-WRN conditioned media (ATCC, cat. CRL-3276), 50 ng/mL recombinant human EGF recombinant protein (hEGF; Thermo Fisher Scientific, cat. PHG0311), 10 ng/mL recombinant human fibroblast growth factor 10 (hGFG-10; PeproTech, cat. 100-26), 1 ng/mL recombinant human fibroblast growth factor 2 (hFGF-2; PeproTech, cat. 100-18B), and 1 µM prostaglandin E2 (PGE2; Tocris, cat. 2296). The 227483-062-R1-J1-PDC line was cultured in Panc media, containing all 6E components except hFGF-2, with the addition of 500 nM SB-431542 (Selleckchem, cat. S1067) and 10 nM gastrin (Tocris, cat. 3006). […]
# [1] = curve of first compound, second compound 0.0316 µM
# [2] = curve of first compound, second compound 0.1 µM
# [3] = curve of first compound, second compound 0.316 µM
# [4] = curve of first compound, second compound 1 µM
# [5] = curve of first compound, second compound 3.16 µM
# [6] = curve of first compound, second compound 10 µM
# [7] = second compound 0.0316 µM, first compound 0.0316 µM
# [8] = second compound 0.0316 µM, first compound 0.1 µM
# [9] = second compound 0.0316 µM, first compound 0.316 µM
# [10] = second compound 0.0316 µM, first compound 1 µM
# [11] = second compound 0.0316 µM, first compound 3.16 µM
# [12] = second compound 0.0316 µM, first compound 10 µM
# [13] = second compound 0.1 µM, first compound 0.0316 µM
# [14] = second compound 0.1 µM, first compound 0.1 µM
# [15] = second compound 0.1 µM, first compound 0.316 µM
# [16] = second compound 0.1 µM, first compound 1 µM
# [17] = second compound 0.1 µM, first compound 3.16 µM
# [18] = second compound 0.1 µM, first compound 10 µM
# [19] = second compound 0.316 µM, first compound 0.0316 µM
# [20] = second compound 0.316 µM, first compound 0.1 µM
# [21] = second compound 0.316 µM, first compound 0.316 µM
# [22] = second compound 0.316 µM, first compound 1 µM
# [23] = second compound 0.316 µM, first compound 3.16 µM
# [24] = second compound 0.316 µM, first compound 10 µM
# [25] = second compound 1 µM, first compound 0.0316 µM
# [26] = second compound 1 µM, first compound 0.1 µM
# [27] = second compound 1 µM, first compound 0.316 µM
# [28] = second compound 1 µM, first compound 1 µM
# [29] = second compound 1 µM, first compound 3.16 µM
# [30] = second compound 1 µM, first compound 10 µM
# [31] = second compound 3.16 µM, first compound 0.0316 µM
# [32] = second compound 3.16 µM, first compound 0.1 µM
# [33] = second compound 3.16 µM, first compound 0.316 µM
# [34] = second compound 3.16 µM, first compound 1 µM
# [35] = second compound 3.16 µM, first compound 3.16 µM
# [36] = second compound 3.16 µM, first compound 10 µM
# [37] = second compound 10 µM, first compound 0.0316 µM
# [38] = second compound 10 µM, first compound 0.1 µM
# [39] = second compound 10 µM, first compound 0.316 µM
# [40] = second compound 10 µM, first compound 1 µM
# [41] = second compound 10 µM, first compound 3.16 µM
# [42] = second compound 10 µM, first compound 10 µM
# 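Further: viability measured after seven days of drug exposure.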
# 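Wherever viability, T/C is given: luminescence signal used as surrogate for viable cell amount; 100% = DMSO vehicle control wells.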
structure (smiles),measurement,setting,value
COc1ccc([C@@H](O)c2cc(-c3ncnc4cc(N5CCOCC5)ccc34)c(F)cc2Cl)nn1 + CNC(=O)c1ccc(Nc2nc(OC3CCCC3)c3c(-c4ccc5nc(C)oc5c4)c[nH]c3n2)c(OC)c1,IC50,[1],1620 nM
same,IC50,[2],1690 nM
same,IC50,[3],565 nM
same,IC50,[4],< 31.6 nM
same,IC50,[5],< 31.6 nM
same,IC50,[6],< 31.6 nM
same,"viability, T/C",[7],107%
same,"viability, T/C",[8],94%
same,"viability, T/C",[9],88.3%
same,"viability, T/C",[10],67.8%
same,"viability, T/C",[11],27%
same,"viability, T/C",[12],15.9%
same,"viability, T/C",[13],91.1%
same,"viability, T/C",[14],94.5%
same,"viability, T/C",[15],82.7%
same,"viability, T/C",[16],69.4%
same,"viability, T/C",[17],27.9%
same,"viability, T/C",[18],16.8%
same,"viability, T/C",[19],75.6%
same,"viability, T/C",[20],78.9%
same,"viability, T/C",[21],67.3%
same,"viability, T/C",[22],32.5%
same,"viability, T/C",[23],20.7%
same,"viability, T/C",[24],13.9%
same,"viability, T/C",[25],41.9%
same,"viability, T/C",[26],27.2%
same,"viability, T/C",[27],26.3%
same,"viability, T/C",[28],18.4%
same,"viability, T/C",[29],16.5%
same,"viability, T/C",[30],13.5%
same,"viability, T/C",[31],25.3%
same,"viability, T/C",[32],23.7%
same,"viability, T/C",[33],21.1%
same,"viability, T/C",[34],16.6%
same,"viability, T/C",[35],17.8%
same,"viability, T/C",[36],15.8%
same,"viability, T/C",[37],18.5%
same,"viability, T/C",[38],21.5%
same,"viability, T/C",[39],20.8%
same,"viability, T/C",[40],15.9%
same,"viability, T/C",[41],15.4%
same,"viability, T/C",[42],11.3%
C=CC(=O)N1CCN(c2nc(=O)n(-c3c(C)ccnc3C(C)C)c3nc(-c4c(O)cccc4F)c(F)cc23)C(C)C1 (stereo not drawn),"viability, T/C",compound 0.0316 µM,91% and 86.6%
same,"viability, T/C",compound 0.1 µM,111% and 92.8%
same,"viability, T/C",compound 0.316 µM,101% and 92.3%
same,"viability, T/C",compound 1 µM,110% and 103%
same,"viability, T/C",compound 3.16 µM,106% and 121%
same,"viability, T/C",compound 10 µM,103% and 74.9%
same,IC50,curve of compound,> 10000 nM
COc1ccc([C@@H](O)c2cc(-c3ncnc4cc(N5CCOCC5)ccc34)c(F)cc2Cl)nn1 + CN1CCN(c2cc(C(=O)Nc3cc4cc(-c5cnn(C)c5)ccc4cn3)ccn2)CC1,IC50,[1],361 nM
same,IC50,[2],47.5 nM
same,IC50,[3],< 31.6 nM
same,IC50,[4],< 31.6 nM
same,IC50,[5],< 31.6 nM
same,IC50,[6],< 31.6 nM
same,"viability, T/C",[7],95.5%
same,"viability, T/C",[8],82.1%
same,"viability, T/C",[9],55.6%
same,"viability, T/C",[10],19.2%
same,"viability, T/C",[11],11.7%
same,"viability, T/C",[12],7.52%
same,"viability, T/C",[13],63%
same,"viability, T/C",[14],26.1%
same,"viability, T/C",[15],13.6%
same,"viability, T/C",[16],13.1%
same,"viability, T/C",[17],10.1%
same,"viability, T/C",[18],7.24%
same,"viability, T/C",[19],9.76%
same,"viability, T/C",[20],8.36%
same,"viability, T/C",[21],8.98%
same,"viability, T/C",[22],7.9%
same,"viability, T/C",[23],7.78%
same,"viability, T/C",[24],3.67%
same,"viability, T/C",[25],0.16%
same,"viability, T/C",[26],0.12%
same,"viability, T/C",[27],0.13%
same,"viability, T/C",[28],0.07%
same,"viability, T/C",[29],0.79%
same,"viability, T/C",[30],0.13%
same,"viability, T/C",[31],0.05%
same,"viability, T/C",[32],0.08%
same,"viability, T/C",[33],0.15%
same,"viability, T/C",[34],0.05%
same,"viability, T/C",[35],0.09%
same,"viability, T/C",[36],0.54%
same,"viability, T/C",[37],0.04%
same,"viability, T/C",[38],0.81%
same,"viability, T/C",[39],1.23%
same,"viability, T/C",[40],0.1%
same,"viability, T/C",[41],0.4%
same,"viability, T/C",[42],0.47%
Nc1ccn(C2OC(CO)C(O)C2(F)F)c(=O)n1 (stereo not drawn) + CN1CCN(c2cc(C(=O)Nc3cc4cc(-c5cnn(C)c5)ccc4cn3)ccn2)CC1,IC50,[1],51.8 nM
same,IC50,[2],46 nM
same,IC50,[3],< 31.6 nM
same,IC50,[4],< 31.6 nM
same,IC50,[5],< 31.6 nM
same,IC50,[6],< 31.6 nM
same,"viability, T/C",[7],65.4%
same,"viability, T/C",[8],28.6%
same,"viability, T/C",[9],21.3%
same,"viability, T/C",[10],19%
same,"viability, T/C",[11],15.6%
same,"viability, T/C",[12],16%
same,"viability, T/C",[13],63.6%
same,"viability, T/C",[14],21.3%
same,"viability, T/C",[15],15.4%
same,"viability, T/C",[16],11.6%
same,"viability, T/C",[17],10.2%
same,"viability, T/C",[18],11.8%
same,"viability, T/C",[19],9.99%
same,"viability, T/C",[20],10.4%
same,"viability, T/C",[21],9.64%
same,"viability, T/C",[22],9.63%
same,"viability, T/C",[23],10.7%
same,"viability, T/C",[24],12%
same,"viability, T/C",[25],0.28%
same,"viability, T/C",[26],0.18%
same,"viability, T/C",[27],0.16%
same,"viability, T/C",[28],0.12%
same,"viability, T/C",[29],0.57%
same,"viability, T/C",[30],0.21%
same,"viability, T/C",[31],0.1%
same,"viability, T/C",[32],0.12%
same,"viability, T/C",[33],0.43%
same,"viability, T/C",[34],0.07%
same,"viability, T/C",[35],0.15%
same,"viability, T/C",[36],0.1%
same,"viability, T/C",[37],0.14%
same,"viability, T/C",[38],0.14%
same,"viability, T/C",[39],1.05%
same,"viability, T/C",[40],1.61%
same,"viability, T/C",[41],0.42%
same,"viability, T/C",[42],0.9%

# Source: PubChem BioAssay AID2060626 (Molecular Pharmacology Branch, DTP, NCI, 2025)
